Assay [1] concerns soybean root cells. Format: cell-based. The following applies: for stimulation of Avr1b(N)-GFP uptake into soybean roots: after 9 hr.
In assay [2] the test system is Avr1b(N)-GFP. Type of assay: binding, Phytophthora sojae.
Assay [3] relates to AvrL567(N)-GFP. Format: binding, Melampsora lini.
In assay [4] the test system is soybean leaf cells. Format: cell-based.

“Also recorded” adds a separate entry of the source.

Turning to `O=P(O)(O)O[C@@H]1C(O)[C@H](OP(=O)(O)O)[C@@H](O)C(O)[C@H]1O` (stereo partly drawn) [1,3-IP2, Inositol 1,3 diphosphate], in assay [1], the “inhibition of entry of Avr2-GFP into soybean root cells” value is listed as “inhibited” and the “inhibition of entry of AvrLm6-GFP into soybean root cells” value is “inhibited”.

For the compound `O=P(O)(O)OC1[C@@H](O)[C@H](O)C(OP(=O)(O)O)[C@H](O)[C@@H]1O` (stereo partly drawn) [IP2, Inositol-1,4-diphosphate], the “inhibition of binding of Avr1b(N)-GFP to PI-4-P-containing liposomes” value in assay [2] is “inhibited binding”. Further, in assay [1], the “inhibition of entry of Avr2-GFP into soybean root cells” value is “inhibited”, the “inhibition of entry of AvrLm6-GFP into soybean root cells” value was “inhibited”, the “inhibition of uptake/entry of Arg9-GFP into soybean root cells” value was “completely unaffected” and the “inhibition of uptake/entry of Avr1b(N)-GFP into soybean root cells” value was “almost completely blocked”. In assay [1], the “inhibition of uptake/entry of AvrL567(N)-GFP into soybean root cells” value was “almost completely blocked”. Further, in assay [3], the “inhibition of binding of AvrL567(N)-GFP to PI-4-P-containing liposomes” value was “completely block binding”.

Turning to `CCCCCCCC(=O)OC[C@H](COP(=O)(O)OC1[C@H](O)[C@H](O)C(OP(=O)(O)O)[C@H](O)[C@H]1O)OC(=O)CCCCCCC` (stereo partly drawn) [di-octanoyl-PI-4-P], in assay [1], the “promotion of uptake of Avr1b(N)-GFP and AvrL567(N)-GFP proteins containing alanine substitutions in the RXLR and dEER motifs” value is given as “did not promote the uptake”; the “stimulation of Arg9-GFP uptake in soybean root cells” value is given as “does not stimulate uptake”; the “stimulation of AvrL567(N)-GFP uptake into soybean roots” value is reported as “strongly stimulated”; the “stimulation of Avr1b(N)-GFP uptake into soybean roots” value was “strong stimulation; also recorded: stimulated”.

AAAA registered an ablation in assay [4] of 0.

Take Arg9: the “Avr1b function / cell re-entry in particle bombardment assay (reduction of GUS-positive blue spots with Rps1b)” value in assay [4] was “could functionally replace the RXLR2 motif”.

Turning to phosphatidyl choline [PC], in assay [1], the “stimulation of Avr1b(N)-GFP uptake into soybean roots” value is listed as “did not stimulate uptake”.

Take phosphatidyl ethanolamine [PE]: the “stimulation of Avr1b(N)-GFP uptake into soybean roots” value in assay [1] is on record as “did not stimulate uptake”.

With phosphatidyl inositol [PI], the “stimulation of Avr1b(N)-GFP uptake into soybean roots” value in assay [1] is “did not stimulate uptake”.

Values taken from patent US20140331365A1 (priority 2008, published 2014).
